Read-outs that look alike come from different tables or passages of the source.
Assays:
Ishikawa cells = test: Ishikawa Cell Alkaline Phosphatase Assay; type: cell-based; details: Homo sapiens, reference compounds, estrogenic activity, 48 h treatment, 95% C.I. given in parentheses, read-out: ED50 values (95% C.I.), alkaline phosphatase activity
Protocol: Ishikawa Cell Alkaline Phosphatase Assay
Cell maintenance and treatment:
Ishikawa cells are maintained in DMEM/F12 (50%:50%) containing phenol red+10% fetal bovine serum. The medium also is supplemented with 2 mM Glutamax, 1% Pen/Strep and 1 mM sodium pyruvate. Five days prior to the beginning of an experiment (treatment of cells) the medium is changed to phenol red-free DMEM/F12+10% dextran coated charcoal stripped serum. On the day before treatment, cells are harvested using 0.5% trypsin/EDTA and plated at a density of 5×10^4 cells/well in 96-well tissue culture plates. […] Cells are treated for 48 hours prior to assay. […] Sample size for each compound dose is n=8.
Alkaline Phosphatase assay:
At the end of 48 hours the media is aspirated and cells are washed three times with phosphate buffered saline (PBS). 50 μl of lysis buffer (0.1M Tris-HCl, pH 9.8, 0.2% Triton X-100) is added to each well. Plates are placed at -80° C. for minimally 15 minutes. Plates are rapidly thawed at 37° C. followed by the addition of 150 μl of 0.1M Tris-HCl, pH 9.8, containing 4 mM para-nitrophenylphosphate to each well (final concentration is 3 mM pNPP).
Absorbance and slope calculations are done using the KineticCalc Application program (Bio-Tek Instruments, Inc., Winooski, Vt.). Results are expressed as the mean ±S.D. of the rate of enzyme reaction (slope) averaged over the linear portion of the kinetic reaction curve (optical density readings every 5 minutes for 30 minutes absorbance reading).

estrogen receptor = target: T1, estrogen receptor (Homo sapiens, UniProt P03372); test: Estrogen Receptor Binding/Competition Assay ([3H]17β-estradiol displacement, CHO cytosol)
T1 sequence (P03372 1-595): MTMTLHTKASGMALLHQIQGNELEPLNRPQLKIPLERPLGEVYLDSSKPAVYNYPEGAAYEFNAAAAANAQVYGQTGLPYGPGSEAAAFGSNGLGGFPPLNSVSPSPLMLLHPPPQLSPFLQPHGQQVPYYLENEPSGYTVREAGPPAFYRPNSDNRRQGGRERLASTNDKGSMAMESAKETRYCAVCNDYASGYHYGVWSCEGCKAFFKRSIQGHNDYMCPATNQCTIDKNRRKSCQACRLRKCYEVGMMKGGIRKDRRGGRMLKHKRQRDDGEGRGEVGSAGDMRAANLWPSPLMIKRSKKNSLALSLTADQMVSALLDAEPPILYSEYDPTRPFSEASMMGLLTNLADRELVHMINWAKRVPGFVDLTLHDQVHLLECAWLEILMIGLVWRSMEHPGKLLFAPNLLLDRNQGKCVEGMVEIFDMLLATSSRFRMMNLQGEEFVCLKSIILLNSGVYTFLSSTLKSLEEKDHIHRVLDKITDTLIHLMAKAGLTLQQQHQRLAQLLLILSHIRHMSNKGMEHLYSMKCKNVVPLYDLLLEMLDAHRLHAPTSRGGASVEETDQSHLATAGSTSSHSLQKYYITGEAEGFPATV

ovariectomized rats = details: cited from earlier work
[1] = background statement, cited from earlier work
[2] = ovariectomized rats, Black et al. 1994

EC50 (Ishikawa cells) | IC50 (estrogen receptor) | SMILES | also measured
 | 100 nM | CC(C)(C)NC(=O)/C=C/c1ccc(C(=O)c2c(-c3ccc(O)cc3)sc3cc(O)ccc23)cc1 [Example 4, (E)-N-t-Butyl-3-{4-[6-hydroxy-2-(4-hydroxyphenyl)benzo[b]thiophene-3-carbonyl]phenyl}acrylamide] | 
 | 100 nM | CCN(CC)C(=O)/C=C/c1ccc(C(=O)c2c(-c3ccc(O)cc3)sc3cc(O)ccc23)cc1 [Example 5, (E)-N,N-Diethyl-3-{4-[6-hydroxy-2-(4-hydroxyphenyl)benzo[b]thiophene-3-carbonyl]phenyl}acrylamide] | 
 | 170 nM | O=C(c1ccc(/C=C/C(=O)N2CCOCC2)cc1)c1c(-c2ccc(O)cc2)sc2cc(O)ccc12 [Example 6, (E)-3-{4-[6-Hydroxy-2-(4 hydroxyphenyl)benzo[b]thiophene-3-carbonyl]-phenyl}-1-(morpholin-4-yl)prop-2-en-1-one] | 
 | 70 nM | O=C(c1ccc(/C=C/C(=O)N2CCCCC2)cc1)c1c(-c2ccc(O)cc2)sc2cc(O)ccc12 [Example 7, (E)-3-{4-[6-Hydroxy-2-(4-hydroxyphenyl)benzo[b]thiophene-3-carbonyl]phenyl}-1-(piperidinyl)prop-en-1-one] | 
0.13 nM |  | C[C@]12CC[C@@H]3c4ccc(O)cc4CC[C@H]3[C@@H]1C[C@@H](O)[C@@H]2O [estriol] | 
0.36 nM |  | C[C@]12CC[C@@H]3c4ccc(O)cc4CC[C@H]3[C@@H]1CCC2=O [estrone] | 

Second part, the compound before the results:

SMILES | EC50 (Ishikawa cells) | IC50 (estrogen receptor) | also measured
C[C@]12CC[C@@H]3c4ccc(O)cc4CC[C@H]3[C@@H]1CC[C@H]2O [17α-estradiol] | 1.42 nM |  | 
C[C@]12CC[C@@H]3c4ccc(O)cc4CC[C@H]3[C@@H]1CC[C@@H]2O [17β-estradiol] | 0.03 nM |  | 
CN(C)C(=O)/C=C/c1ccc(C(=O)c2c(-c3ccc(O)cc3)sc3cc(O)ccc23)cc1 [Example 3, (E)-3-{4-[6-Hydroxy-2-(4-hydroxyphenyl)benzo[b]thiophene-3-carbonyl]phenyl}-N,N-dimethylacrylamide] |  | 150 nM | 
O=C(c1ccc(OCCN2CCCCC2)cc1)c1c(-c2ccc(O)cc2)sc2cc(O)ccc12 [raloxifene] |  |  | effect on bone loss (ovariectomized rats; [2]): prevents bone loss; effect on serum cholesterol (ovariectomized rats; [2]): reduces serum cholesterol; uterine hypertrophy (ovariectomized rats; [2]): without causing uterine hypertrophy; effect on bone loss (ovariectomized rats; species not given): reduce bone loss; uterine hypertrophy (ovariectomized rats; species not given): without causing uterine hypertrophy
[F-].[Na+] [sodium fluoride] |  |  | bone growth quality [1]: the bone growth is irregular; fracture incidence [1]: fracture incidence does not appear to be significantly lowered; side-effects [1]: significant side-effects; bone density increase ([1]; up to the value): 8-10 % a year
